Measured values as given in ChEMBL document CHEMBL4673219, “Novel 5,6-disubstituted pyrrolo[2,3-d]pyrimidine derivatives as broad spectrum antiproliferative agents: Synthesis, cell based assays, kinase profile and molecular docking study” (Bioorg Med Chem, 2018).
Where “and” joins values, the source holds several entries; their conditions need not be identical. Equal values may be shown once.

Experiments:
786-0 = assay: Growth inhibition of human 786-0 cells assessed as growth percentage at 0.1 uM incubated for 48 hrs by sulforhodamine B assay relative to control; format: functional; conditions: read-out: Activity
SNB-19 = assay: Growth inhibition of human SNB-19 cells assessed as growth percentage at 10 uM incubated for 48 hrs by sulforhodamine B assay relative to control; format: functional; conditions: read-out: Activity
NCI-H460 [1] = assay: Growth inhibition of human NCI-H460 cells assessed as growth percentage at 0.1 uM incubated for 48 hrs by sulforhodamine B assay relative to control; format: functional; conditions: read-out: Activity
A549 = assay: Growth inhibition of human A549/ATCC cells assessed as growth percentage at 100 uM incubated for 48 hrs by sulforhodamine B assay relative to control; format: functional; conditions: read-out: Activity
Malme-3M = assay: Growth inhibition of human Malme-3M cells assessed as growth percentage at 100 uM incubated for 48 hrs by sulforhodamine B assay relative to control; format: functional; conditions: read-out: Activity
RPMI-8226 [2] = assay: Growth inhibition of human RPMI-8226 cells assessed as growth percentage at 100 uM incubated for 48 hrs by sulforhodamine B assay relative to control; format: functional; conditions: read-out: Activity
PC-3 [3] = assay: Growth inhibition of human PC-3 cells assessed as growth percentage at 1 uM incubated for 48 hrs by sulforhodamine B assay relative to control; format: functional; conditions: read-out: Activity
SK-OV-3 = assay: Growth inhibition of human SK-OV-3 cells incubated for 48 hrs by sulforhodamine B assay; format: functional
SK-MEL-5 [4] = assay: Growth inhibition of human SK-MEL-5 cells assessed as growth percentage at 10 uM incubated for 48 hrs by sulforhodamine B assay relative to control; format: functional; conditions: read-out: Activity
SK-MEL-5 [5] = assay: Growth inhibition of human SK-MEL-5 cells assessed as growth percentage at 1 uM incubated for 48 hrs by sulforhodamine B assay relative to control; format: functional; conditions: read-out: Activity
SR = assay: Growth inhibition of human SR cells incubated for 48 hrs by sulforhodamine B assay; format: functional
Hs-578T [6] = assay: Growth inhibition of human Hs-578T cells assessed as growth percentage at 0.1 uM incubated for 48 hrs by sulforhodamine B assay relative to control; format: functional; conditions: read-out: Activity
NCI-H460 [7] = assay: Growth inhibition of human NCI-H460 cells assessed as growth percentage at 10 uM incubated for 48 hrs by sulforhodamine B assay relative to control; format: functional; conditions: read-out: Activity
OVCAR-3 = assay: Growth inhibition of human OVCAR-3 cells assessed as growth percentage at 10 uM incubated for 48 hrs by sulforhodamine B assay relative to control; format: functional; conditions: read-out: Activity
PC-3 [8] = assay: Growth inhibition of human PC-3 cells incubated for 48 hrs by sulforhodamine B assay; format: functional
SW-620 = assay: Growth inhibition of human SW-620 cells assessed as growth percentage at 10 uM incubated for 48 hrs by sulforhodamine B assay relative to control; format: functional; conditions: read-out: Activity
LOX IMVI = assay: Growth inhibition of human LOX IMVI cells assessed as growth percentage at 1 uM incubated for 48 hrs by sulforhodamine B assay relative to control; format: functional; conditions: read-out: Activity
HCC 2998 = assay: Growth inhibition of human HCC 2998 cells assessed as growth percentage at 100 uM incubated for 48 hrs by sulforhodamine B assay relative to control; format: functional; conditions: read-out: Activity
UACC-62 = assay: Growth inhibition of human UACC-62 cells assessed as growth percentage at 0.01 uM incubated for 48 hrs by sulforhodamine B assay relative to control; format: functional; conditions: read-out: Activity
HCT-116 = assay: Antiproliferative activity against human HCT-116 cells assessed as cell growth inhibition measured after 72 hrs by MTT assay; format: functional
SF-539 = assay: Growth inhibition of human SF-539 cells incubated for 48 hrs by sulforhodamine B assay; format: functional
OVCAR-4 = assay: Growth inhibition of human OVCAR-4 cells assessed as growth percentage at 0.01 uM incubated for 48 hrs by sulforhodamine B assay relative to control; format: functional; conditions: read-out: Activity
DU-145 = assay: Growth inhibition of human DU-145 cells assessed as growth percentage at 10 uM incubated for 48 hrs by sulforhodamine B assay relative to control; format: functional; conditions: read-out: Activity
NCI-H460 [9] = assay: Growth inhibition of human NCI-H460 cells incubated for 48 hrs by sulforhodamine B assay; format: functional; conditions: Homo sapiens
MDA-MB-435 = assay: Growth inhibition of human MDA-MB-435 cells assessed as growth percentage at 100 uM incubated for 48 hrs by sulforhodamine B assay relative to control; format: functional; conditions: read-out: Activity
RPMI-8226 [10] = assay: Growth inhibition of human RPMI-8226 cells assessed as growth percentage at 1 uM incubated for 48 hrs by sulforhodamine B assay relative to control; format: functional; conditions: read-out: Activity
NCI-H226 = assay: Growth inhibition of human NCI-H226 cells assessed as growth percentage at 0.01 uM incubated for 48 hrs by sulforhodamine B assay relative to control; format: functional; conditions: read-out: Activity
[11] = Cytotoxicity against human HFF-1 cells assessed as cell growth inhibition at 10 uM by MTT assay relative to control; format: cell-based; conditions: read-out: GI
HOP-92 = assay: Growth inhibition of human HOP-92 cells assessed as growth percentage at 10 uM incubated for 48 hrs by sulforhodamine B assay relative to control; format: functional; conditions: read-out: Activity
SK-MEL-5 [12] = assay: Growth inhibition of human SK-MEL-5 cells incubated for 48 hrs by sulforhodamine B assay; format: functional; conditions: for CC50: read-out: LC50 (the source's name)
Hs-578T [13] = assay: Growth inhibition of human Hs-578T cells incubated for 48 hrs by sulforhodamine B assay; format: functional
CAKI-1 = assay: Growth inhibition of human CAKI-1 cells assessed as growth percentage at 0.01 uM incubated for 48 hrs by sulforhodamine B assay relative to control; format: functional; conditions: read-out: Activity
UO-31 = assay: Growth inhibition of human UO-31 cells assessed as growth percentage at 0.01 uM incubated for 48 hrs by sulforhodamine B assay relative to control; format: functional; conditions: read-out: Activity
MDA-MB-231 = assay: Growth inhibition of human MDA-MB-231/ATCC cells assessed as growth percentage at 100 uM incubated for 48 hrs by sulforhodamine B assay relative to control; format: functional; conditions: read-out: Activity
HCT-15 = assay: Growth inhibition of human HCT-15 cells assessed as growth percentage at 10 uM incubated for 48 hrs by sulforhodamine B assay relative to control; format: functional; conditions: read-out: Activity
OVCAR-8 [14] = assay: Growth inhibition of human OVCAR-8 cells assessed as growth percentage at 0.1 uM incubated for 48 hrs by sulforhodamine B assay relative to control; format: functional; conditions: read-out: Activity
OVCAR-8 [15] = assay: Growth inhibition of human OVCAR-8 cells incubated for 48 hrs by sulforhodamine B assay; format: functional; conditions: Homo sapiens, OVCAR-8, 48 h
M14 = assay: Growth inhibition of human M14 cells assessed as growth percentage at 0.1 uM incubated for 48 hrs by sulforhodamine B assay relative to control; format: functional; conditions: read-out: Activity
[16] = read-out: LC50 (the source's name)

SMILES: Nc1nc2[nH]c(CN3CCN(c4cc(Cl)cc(Cl)c4)CC3)c(CN3CCN(c4cc(Cl)cc(Cl)c4)CC3)c2c(=O)[nH]1
- growth at 0.1 µM (786-0): 93%
- growth at 10 µM (SNB-19): 79.8%
- growth at 0.1 µM (NCI-H460 [1]): 104%
- growth at 100 µM (A549): -45%
- growth at 100 µM (Malme-3M): -42%
- growth at 100 µM (RPMI-8226 [2]): -19%
- growth at 1 µM (PC-3 [3]): 86%
- TGI (SK-OV-3; 48 h): 17.5 µM and 1.75 µM
- GI50 (SK-OV-3; Homo sapiens, SK-OV-3): 4.62 µM
- growth at 10 µM (SK-MEL-5 [4]): 91%
- growth at 1 µM (SK-MEL-5 [5]): 89%
- GI50 (SR; Homo sapiens, SR): 1460 nM
- TGI (SR; Homo sapiens, SR): 4.46 µM
- CC50 (SR; [16]): > 100 µM
- growth at 0.1 µM (Hs-578T [6]): 88%
- growth at 10 µM (NCI-H460 [7]): 79.4%
- growth at 10 µM (OVCAR-3): 89.7%
- GI50 (PC-3 [8]): 1760 nM
- TGI (PC-3 [8]): 3.89 µM
- CC50 (PC-3 [8]; [16]): 8.61 µM
- growth at 10 µM (SW-620): -16.3%
- growth at 1 µM (LOX IMVI): 104%
- growth at 100 µM (HCC 2998): -38%
- growth at 0.01 µM (UACC-62): 101%
- GI50 (HCT-116): 2890 nM
- GI50 (SF-539): 1720 nM
- TGI (SF-539): 3.26 µM
- growth at 0.01 µM (OVCAR-4): 95%
- growth at 10 µM (DU-145): 81.3%
- TGI (NCI-H460 [9]; NCI-H460): 3.94 µM
- GI50 (NCI-H460 [9]; NCI-H460, 48 h): 1960 nM
- growth at 100 µM (MDA-MB-435): -80%
- growth at 1 µM (RPMI-8226 [10]): 92%
- growth at 0.01 µM (NCI-H226): 95%
- inhibition at 10 µM [11]: 15.8%
- growth at 10 µM (HOP-92): 66.2%
- CC50 (SK-MEL-5 [12]; 48 h): 2.89 µM
- GI50 (SK-MEL-5 [12]; Homo sapiens, SK-MEL-5): 1630 nM
- TGI (SK-MEL-5 [12]; Homo sapiens, SK-MEL-5): 3.07 µM
- CC50 (SK-MEL-5 [12]; Homo sapiens, SK-MEL-5, 48 h): 5.76 µM
- GI50 (Hs-578T [13]): 1780 nM
- TGI (Hs-578T [13]): 4.22 µM
- growth at 0.01 µM (CAKI-1): 87%
- growth at 0.01 µM (UO-31): 96%
- growth at 100 µM (MDA-MB-231): -30%
- growth at 10 µM (HCT-15): 67.4%
- growth at 0.1 µM (OVCAR-8 [14]): 97%
- GI50 (OVCAR-8 [15]): 2050 nM
- TGI (OVCAR-8 [15]): 4.48 µM
- growth at 0.1 µM (M14): 98%
